# Measurements reported in patent US6602900B2, “Cyclopentane heptan(ENE)oic acid, 2-heteroarylalkenyl derivatives as therapeutic agents” (Allergan, Inc., priority 1992, dated 2003).
# Legend:
# EP1 receptor = target: T1, EP1 receptor (Cavia porcellus, UniProt A0A286XHJ6); test: EP1-activity: contraction of the longitudinal smooth muscle of the isolated guinea pig ileum; assay type: cell-based
# T1 sequence (A0A286XHJ6 1-405): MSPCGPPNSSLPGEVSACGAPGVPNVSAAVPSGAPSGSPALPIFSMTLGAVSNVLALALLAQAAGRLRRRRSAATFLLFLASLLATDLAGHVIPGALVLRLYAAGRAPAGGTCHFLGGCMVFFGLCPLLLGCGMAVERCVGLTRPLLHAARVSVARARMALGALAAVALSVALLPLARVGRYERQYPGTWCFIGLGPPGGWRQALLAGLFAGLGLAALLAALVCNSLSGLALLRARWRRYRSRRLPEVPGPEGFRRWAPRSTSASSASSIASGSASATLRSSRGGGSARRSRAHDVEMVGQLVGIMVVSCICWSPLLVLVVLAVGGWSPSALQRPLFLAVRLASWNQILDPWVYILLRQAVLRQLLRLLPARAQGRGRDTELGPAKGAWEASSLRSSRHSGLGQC
# Experimental: (§1) Activity at different prostanoid receptors was measured in vitro in isolated smooth muscle preparations. FP-activity was measured as contraction of the isolated feline iris sphincter. EP1-activity was measured as contraction of the longitudinal smooth muscle of the isolated guinea pig ileum. EP3-activity was measured as inhibition of the twitch response induced by electrical field stimulation in the isolated guinea pig was deferens and as contraction of the longitudinal smooth muscle of the isolated chick ileum. Activity was also measured as relaxation of smooth muscle of isolated rabbit jugular vein a preparation which appears to contain a unique PGF2α-sensitive receptor provisionally termed FPVASC. TP-vasoconstrictor activity was measured as contraction of rings of the isolated rat thoracic aorta. Effects on platelets from healthy human donors were measured by incubating platelet-rich plasma with the compounds described herein. Inhibition of aggregation was determined by the ability of the compounds described herein to inhibit platelet aggregation in platelet-rich plasma induced by 20 μM ADP.
# EP3 receptor = target: T2, EP3 receptor (UniProt A0A286XLZ9); test: EP3-activity: inhibition of the twitch response induced by electrical field stimulation in the isolated guinea pig vas deferens; assay type: cell-based; conditions: pa = printed beside some values, read-out: EC50 (nM) EP3, first value of the cell
# T2 sequence (A0A286XLZ9 1-363): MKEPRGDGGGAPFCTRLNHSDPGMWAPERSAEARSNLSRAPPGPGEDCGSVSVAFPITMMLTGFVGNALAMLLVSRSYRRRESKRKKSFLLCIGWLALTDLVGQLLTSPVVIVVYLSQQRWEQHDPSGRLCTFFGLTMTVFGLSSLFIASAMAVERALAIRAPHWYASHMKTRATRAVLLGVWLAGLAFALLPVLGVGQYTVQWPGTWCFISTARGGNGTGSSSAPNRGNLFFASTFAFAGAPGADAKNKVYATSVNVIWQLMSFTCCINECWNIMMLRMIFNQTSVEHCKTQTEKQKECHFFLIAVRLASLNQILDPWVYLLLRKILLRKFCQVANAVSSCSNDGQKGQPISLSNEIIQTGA
# Experimental: as §1
# [1] = test system: PGF2α-sensitive receptor provisionally termed FPVASC; test: Relaxation of smooth muscle of isolated rabbit jugular vein; assay type: cell-based; conditions: isolated rabbit jugular vein relaxation; read-out: EC50 (nM) FPVASC
# Experimental: as §1
# TP receptor = target: T3, TP receptor (Rattus norvegicus, UniProt P34978); test: TP-vasoconstrictor activity: contraction of rings of the isolated rat thoracic aorta; assay type: cell-based; conditions: isolated rat thoracic aorta contraction; read-out: EC50 (nM) TP
# T3 construct: rings of the isolated rat thoracic aorta; from tissue; host or cells: isolated rat thoracic aorta rings
# T3 sequence (P34978 1-341): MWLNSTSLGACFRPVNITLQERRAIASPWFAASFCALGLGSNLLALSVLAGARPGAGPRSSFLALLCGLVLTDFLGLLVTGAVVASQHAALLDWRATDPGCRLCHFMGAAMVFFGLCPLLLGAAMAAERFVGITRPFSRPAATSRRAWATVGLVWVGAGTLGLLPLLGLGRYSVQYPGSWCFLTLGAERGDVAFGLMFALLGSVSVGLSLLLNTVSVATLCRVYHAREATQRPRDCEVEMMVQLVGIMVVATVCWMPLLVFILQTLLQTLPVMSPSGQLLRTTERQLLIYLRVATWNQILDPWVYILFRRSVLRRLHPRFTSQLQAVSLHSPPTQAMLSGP
# Experimental: as §1
# Dog eye (hyperemia) = test: Ocular surface hyperemia in dogs after topical dosing; assay type: in vivo; design: scale not given here
# Dog eye (miosis) = test: Miosis in dogs after topical dosing; assay type: in vivo
# Dog intraocular pressure = Dog intraocular pressure by applanation pneumatonometry; assay type: in vivo; conditions: dogs
# Experimental: The compounds were prepared at the said concentrations in a vehicle comprising 0.1% polysorbate 80 and 10 mM TRIS base. Dogs were treated by administering 25 μl to the ocular surface, the contralateral eye received vehicle as a control. Intraocular pressure was measured by applanation pneumatonometry. Dog intraocular pressure was measured immediately before drug administration and at 6 hours thereafter.
# intraocular pressure = conditions: ocular; cited from earlier work
# ocular surface = conditions: humans; cited from earlier work
Compound,EC50 (EP1 receptor) [nM],EC50 (EP3 receptor) [nM],EC50 [1] [nM],EC50 (TP receptor) [nM],Hyp (hyperemia score) (Dog eye (hyperemia); 0.1%),Miosis (Dog eye (miosis); 0.1%),ocular hypotensive effect (in words) (Dog intraocular pressure),also measured
O=C(O)CCC/C=C\C[C@@H]1[C@@H](/C=C/[C@@H](O)CCc2cccs2)[C@H](O)C[C@@H]1O,> 10000,43,20,4010,0.38,pinpt,–,–
O=C(O)CCC/C=C\C[C@@H]1[C@@H](/C=C/[C@H](O)CCc2cccs2)[C@H](O)C[C@@H]1O,> 10000,> 10000,31,> 10000,0.79,pinpt,–,–
Cc1cc(CC[C@H](O)/C=C/[C@@H]2[C@@H](C/C=C\CCCC(=O)O)[C@@H](O)C[C@H]2O)cs1,> 10000,305,> 7140,~10000,1.38,pinpt,–,Hyp (hyperemia score) (Dog eye (hyperemia); 0.01%): 0.42; Miosis (Dog eye (miosis); 0.01%): pinpt
O=C(O)CCC/C=C\C[C@@H]1[C@@H](/C=C/[C@@H](O)CCc2ccc(Br)s2)[C@H](O)C[C@@H]1O,> 10000,36,8.5,5080,1.0,pinpoint,–,–
"O=C(O)CCC/C=C\C[C@@H]1[C@@H](/C=C/[C@@H](O)CCc2cc(Cl)sc2Cl)[C@H](O)C[C@@H]1O [Compound 4g, 7-[3α,5α-Dihydroxy-2-(3α-hydroxy-5-(3-(2,5-dichloro)thienyl)-1E-pentenyl)cyclopentyl]-5Z-heptenoic acid]",–,–,–,–,–,–,pronounced ocular hypotensive effect,–
"O=C(O)CCC/C=C\C[C@@H]1[C@@H](/C=C/[C@@H](O)CCc2ccsc2)[C@H](O)C[C@@H]1O [Compound 4p, 7-[3α,5α-Dihydroxy-2-(3α-hydroxy-5-(3-thienyl)-1E-pentenyl)cyclopentyl]-5Z-heptenoic acid]",–,–,–,–,–,–,excellent ability to lower intraocular pressure,–
NC(=O)CCC/C=C\CC1C(O)CC(O)C1/C=C/C(O)CCc1sccc1I (stereo not shown) [Compound 8t],–,–,–,–,–,–,pronounced ocular hypotensive effect,–
Cc1c(Br)csc1CCC(O)/C=C/C1C(O)CC(O)C1C/C=C\CCCC(N)=O (stereo not shown) [Compound 8u],–,–,–,–,–,–,pronounced ocular hypotensive effect,–
NC(=O)CCC/C=C\CC1C(O)CC(O)C1/C=C/C(O)CCc1scc(Br)c1Br (stereo not shown) [Compound 8v],–,–,–,–,–,–,pronounced ocular hypotensive effect,–
O=C(O)CCC/C=C\C[C@@H]1[C@@H](/C=C/[C@@H](O)CCc2ccsc2)[C@H](O)C[C@@H]1O [drawing 12],2000,400,9.2,2460,0.6,pinpoint,–,–
O=C(O)CCC/C=C\C[C@@H]1[C@@H](/C=C/[C@@H](O)CCc2cc(Cl)sc2Cl)[C@H](O)C[C@@H]1O [drawing 28],> 10000,> 10000,7.7,2300,0.5,pinpt,–,–
CCCCC[C@H](O)/C=C/[C@@H]1[C@@H](C/C=C\CCCC(=O)OC(C)C)[C@@H](O)C[C@H]1O [isopropyl ester of PGF2α],–,–,–,–,–,–,–,hypotensive potency versus parent compound (in words) (intraocular pressure): significantly greater hypotensive potency than the parent compound; side effects of topical ocular use (in words) (ocular surface): ocular surface (conjunctival) hyperemia and foreign-body sensation
prostaglandin F2α [PGF2α],–,–,–,–,–,–,–,side effects of topical ocular use (in words) (ocular surface): ocular surface (conjunctival) hyperemia and foreign-body sensation
